Experimental data as given in patent US10201546B2, “Quinolinyl modulators of RORγt” (Janssen Pharmaceutica NV, priority 2013, dated 2019).
Counter-ions that a name gives are not always drawn. Like-named read-outs stand apart in the source and are kept apart here.

Assays:
[1] = tested on: IL-17 production by CD4+ T cells under conditions which favor Th17 differentiation; experiment: Human Th17 assay (IL-17 production by CD4 T cells); format: cell-based
Procedure: The human Th17 assay tests the effect of RORγt modulatory compounds on IL-17 production by CD4 T cells under conditions which favor Th17 differentiation. Total CD4^+ T cells were isolated from the peripheral blood mononuclear cells (PBMC) of healthy donors using a CD4^+ T cell isolation kit II, following the manufacturer's instructions (Miltenyi Biotec). […] 50 μL of compound at titrated concentrations in DMSO were added into each well at final DMSO concentration at 0.2%. Cells were incubated for 1 hour, then 50 μL of Th17 cell differentiation medium was added to each well. The final concentrations of antibodies and cytokines (R&D Systems) in differentiation medium were: 3×10^6/mL anti-CD3/CD28 beads (prepared using human T cell activation/expansion kit, Miltenyi Biotec), 10 μg/mL anti-IL4, 10 μg/mL anti-IFNγ, 10 ng/mL IL113, 10 ng/mL IL23, 50 ng/mL IL6, 3 ng/mL TGFβ and 20 U/mL IL2. Cells were cultured at 37° C. and 5% CO2 for 3 days. Supernatants were collected and the accumulated IL-17 in culture was measured by using MULTI-SPOT® Cytokine Plate following manufacture's instruction (Meso Scale Discovery). The plate was read using Sector Imager 6000, and IL-17 concentration was extrapolated from the standard curve. The IC50s were determined by GraphPad.

[2] = molecular target: human RORγt LBD fused to the DNA binding domain of the GAL4 protein (Homo sapiens (Human), UniProt P51449); experiment: RORγt (LBD) reporter assay in HEK293T cells; format: cell-based; design: RORγt (LBD) Reporter Assay, % inhibition: dose or concentration left out as unconfirmed
[3] = molecular target: human RORγt ligand binding domain (RORγt LBD) (Homo sapiens (Human), UniProt P51449); experiment: RORγt ThermoFluor assay (thermal shift, binding affinity Kd); conditions: read-out: ThermoFluor Assay, Kd
human RORγt ligand binding domain (RORγt LBD), sequence (P51449 other isoform, or with tags, fused parts or gaps): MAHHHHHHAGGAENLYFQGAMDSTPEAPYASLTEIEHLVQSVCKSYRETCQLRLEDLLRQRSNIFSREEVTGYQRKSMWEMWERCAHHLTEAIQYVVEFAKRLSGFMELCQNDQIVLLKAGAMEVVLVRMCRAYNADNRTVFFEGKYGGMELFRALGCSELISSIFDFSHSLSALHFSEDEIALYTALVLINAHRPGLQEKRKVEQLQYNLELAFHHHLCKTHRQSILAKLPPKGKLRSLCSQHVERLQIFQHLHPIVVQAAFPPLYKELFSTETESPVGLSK

human RORγt LBD fused to the DNA binding domain of the GAL4 protein, sequence (P51449 258-518): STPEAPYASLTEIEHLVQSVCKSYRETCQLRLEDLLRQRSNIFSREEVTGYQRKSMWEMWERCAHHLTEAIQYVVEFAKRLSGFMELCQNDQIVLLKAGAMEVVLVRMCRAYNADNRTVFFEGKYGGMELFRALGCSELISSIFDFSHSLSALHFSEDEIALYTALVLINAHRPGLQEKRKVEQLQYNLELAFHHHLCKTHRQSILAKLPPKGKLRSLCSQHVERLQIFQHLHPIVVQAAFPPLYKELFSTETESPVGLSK

SMILES	IC50 ([1]; Homo sapiens) [nM]	further results
COc1nc2ccc(C(O)(c3ccc(C(F)(F)F)nc3)c3cncn3C)cc2c(Cl)c1OCC1CC1 (single isomer, unassigned) [Example 88c, [4-Chloro-3-(cyclopropylmethoxy)-2-methoxyquinolin-6-yl](1-methyl-1H-imidazol-5-yl)[6-(trifluoromethyl)pyridin-3-yl]methanol]	310	
Cn1cncc1C(O)(c1ccc(C(F)(F)F)nc1)c1ccc2nc(N3CCC3)c(OCC(F)(F)F)c(Cl)c2c1 (single isomer, unassigned) [Example 89c, [2-Azetidin-1-yl-4-chloro-3-(2,2,2-trifluoroethoxy)quinolin-6-yl](1-methyl-1H-imidazol-5-yl)[6-(trifluoromethyl)pyridin-3-yl]methanol]	79	
Cn1cncc1C(O)(c1ccc(Cl)cc1)c1ccc2nc(N3CCC3)c(OCC(F)(F)F)c(Cl)c2c1 (single isomer, unassigned) [Example 90c, [2-Azetidin-1-yl-4-chloro-3-(2,2,2-trifluoroethoxy)quinolin-6-yl](4-chlorophenyl)(1-methyl-1H-imidazol-5-yl)methanol]	200	
CCOc1c(OC)nc2ccc(C(O)(c3ccc(C(F)(F)F)nc3)c3cncn3C)cc2c1Cl (single isomer, unassigned) [Example 91c, (4-Chloro-3-ethoxy-2-methoxyquinolin-6-yl)(1-methyl-1H-imidazol-5-yl)[6-(trifluoromethyl)pyridin-3-yl]methanol]	520	
CC(C)Oc1c(N2CCC2)nc2ccc(C(O)(c3ccc(Cl)cc3)c3cncn3C)cc2c1Cl (single isomer, unassigned) [Example 94c, [2-Azetidin-1-yl-4-chloro-3-(1-methylethoxy)quinolin-6-yl](4-chlorophenyl)(1-methyl-1H-imidazol-5-yl)methanol]	380	
COc1nc2ccc(C(O)(c3ccc(C(F)(F)F)nc3)c3cncn3C)cc2c(Cl)c1OC(C)C (single isomer, unassigned) [Example 95b, [4-Chloro-2-methoxy-3-(1-methylethoxy)quinolin-6-yl](1-methyl-1H-imidazol-5-yl)[6-(trifluoromethyl)pyridin-3-yl]methanol]	61	
COc1nc2ccc(C(O)(c3ccc(Cl)cc3)c3cncn3C)cc2c(Cl)c1OC(C)C (single isomer, unassigned) [Example 99b, [4-Chloro-2-methoxy-3-(1-methylethoxy)quinolin-6-yl](4-chlorophenyl)(1-methyl-1H-imidazol-5-yl)methanol]	1200	
COc1nc2ccc(C(O)(c3ccnc(C(F)(F)F)c3)c3cncn3C)cc2c(Cl)c1CN1CCC(C(F)(F)F)CC1 (single isomer, unassigned) [Example 100c, (4-Chloro-2-methoxy-3-((4-(trifluoromethyl)piperidin-1-yl)methyl)quinolin-6-yl)(1-methyl-1H-imidazol-5-yl)(2-(trifluoromethyl)pyridin-4-yl)methanol]		IC50 ([1]; Homo sapiens, CD4+ T): 7.6 nM; RORγt (LBD) Reporter Assay, % inhibition @ 6 μM [2]: 100%
COc1nc2ccc(C(O)(c3ccc(Cl)cc3)c3cncn3C)cc2c(Cl)c1CN1CCC(n2cccn2)CC1 (single isomer, unassigned) [Example 101c, (3-((4-(1H-Pyrazol-1-yl)piperidin-1-yl)methyl)-4-chloro-2-methoxyquinolin-6-yl)(4-chlorophenyl)(1-methyl-1H-imidazol-5-yl)methanol]	360	
COc1nc2ccc(C(O)(c3cnnn3C)c3cnc(C)n3C)cc2c(Cl)c1CN1CCC(C(F)(F)F)CC1 (single isomer, unassigned) [Example 106c, (4-Chloro-2-methoxy-3-((4-(trifluoromethyl)piperidin-1-yl)methyl)quinolin-6-yl)(1,2-dimethyl-1H-imidazol-5-yl)(1-methyl-1H-1,2,3-triazol-5-yl)methanol]		IC50 [1]: 1.4 nM; RORγt (LBD) Reporter Assay, % inhibition @ 6 μM [2]: 100%
COc1nc2ccc(C(O)(c3cnc(C)n3C)C3CN(C(C)=O)C3)cc2c(Cl)c1CN1CCC(C(F)(F)F)CC1 (single isomer, unassigned) [Example 124b, 1-(3-((4-Chloro-2-methoxy-3-((4-(trifluoromethyl)piperidin-1-yl)methyl)quinolin-6-yl)(1,2-dimethyl-1H-imidazol-5-yl)(hydroxy)methyl)azetidin-1-yl)ethanone]		IC50 [1]: > 6000 nM
COc1nc2ccc(C(O)(c3cnc(C)n3C)C3CN(C(C)=O)C3)cc2c(Cl)c1CN1CCC(C(F)(F)F)CC1 (single isomer, unassigned) [Example 124c, 1-(3-((4-Chloro-2-methoxy-3-((4-(trifluoromethyl)piperidin-1-yl)methyl)quinolin-6-yl)(1,2-dimethyl-1H-imidazol-5-yl)(hydroxy)methyl)azetidin-1-yl)ethanone]		IC50 [1]: 35 nM
COc1nc2ccc(C(O)(c3ccc(C)nc3C)c3cnnn3C)cc2c(Cl)c1CC(F)(F)F (single isomer, unassigned) [Example 143c, [4-Chloro-2-methoxy-3-(2,2,2-trifluoroethyl)quinolin-6-yl](2,6-dimethylpyridin-3-yl)(1-methyl-1H-1,2,3-triazol-5-yl)methanol]		IC50 ([1]; Homo sapiens, CD4+ T): 370 nM; RORγt (LBD) Reporter Assay, % inhibition [2]: 100%
COc1nc2ccc([C@@](O)(c3ccccc3)C3CCN(C(C)=O)CC3)cc2c(Cl)c1CC1CCOCC1 [Example 4b]		Kd [3]: 9 nM; IC50 [1]: > 6000 nM; IC50 [2]: > 6000 nM; RORγt (LBD) Reporter Assay, % inhibition @ 6 μM [2]: 42%
CCOC(=O)c1c(C(F)(F)F)nc2ccc(C(O)(c3cccnc3)c3cccnc3)cc2c1C(F)(F)F [Example 8, Ethyl 6-(hydroxydi(pyridin-3-yl)methyl)-2,4-bis(trifluoromethyl)quinoline-3-carboxylate.TFA]	200	
CC(C)c1c(Cl)nc2ccc(C(O)(c3cccnc3)c3cccc(Cl)c3)cc2c1Cl (stereo not drawn) [Example 19, (3-Chlorophenyl) [2,4-dichloro-3-(1-methylethyl)quinolin-6-yl]pyridin-3-ylmethanol.TFA]	1300	
CC(C)(C)c1c(/C=C/c2ccccc2)nc2ccc(C(O)(c3cccnc3)c3cccc(Cl)c3)cc2c1Cl (stereo not drawn) [Example 27, {3-tert-Butyl-4-chloro-2-[(E)-2-phenylethenyl]quinolin-6-yl}(3-chlorophenyl)pyridin-3-ylmethanol.TFA]	~3000	
COc1nc2ccc(C(O)(c3cnc(C)n3C)c3cnc(C)n3C)cc2c(Cl)c1CN1CCC(C(F)(F)F)CC1 [Example 111, (4-Chloro-2-methoxy-3-((4-(trifluoromethyl)piperidin-1-yl)methyl)quinolin-6-yl)bis(1,2-dimethyl-1H-imidazol-5-yl)methanol]	17	
